Experimental findings from patent US9393236B2, “Use of 4-cyclopropylmethoxy-N-(3,5-dichloro-1-oxido-4-pyridin-4-yl)-5-(methoxy)pyridine-2-carboxamide in the treatment of cranial traumas” (SANOFI, priority 2007, dated 2016) are described below.

Each structure is given as a SMILES string.

One data set concerns ferret. Briefly: Evaluation of the emetic effects in the ferret. In kind it is in vivo. How it is done:
The emetic capacity of 4-cyclopropylmethoxy-N-(3,5-dichloro-1-oxidopyridin-4-yl)-5-(methoxy)pyridine-2-carboxamide was evaluated in the ferret. Two groups of ferrets were used, the first receiving the carrier (PEG200) and the second receiving 4-cyclopropyl methoxy-N-(3,5-dichloro-1-oxidopyridin-4-yl)-5-(methoxy)pyridine-2-carboxamide in solution in the carrier (PEG 200), by oral gavage. The animals were observed continually for the 2 hours following the administration, and then every hour up to 6 hours after the administration. The clinical signs (in particular retching and vomiting) were noted.
The emetic capacity of (R)-(−)-rolipram was evaluated in the ferrets. Two groups of ferrets were used, the first being given the carrier (PEG200) and the second being given the (((4R)-4-[3-(cyclopentyloxy)-4-methoxyphenyl]pyrrolidine-2-one)) in solution in the carrier (PEG 200), by oral gavage, at doses of 0.05 mg/kg and of 0.1 mg/kg. The animals were observed continually for the 2 hours following administration, and then once an hour up to 6 hours after the administration. The clinical signs were noted.

The subject of data set [1] is rats with parietal cranial trauma. Briefly: CFR (Conditioned Freezing Response) test after a parietal cranial trauma. In kind it is in vivo, rat (Sprague-Dawley). Conditions: rat; 0.05 mg/kg i.v. 4 h after surgery (D0), then 0.1 mg/kg/day per os twice a day D1-D21; CFR measured D23/D24; p<0.001 vs traumatized animal given the carrier. How it is done: After general anaesthesia, rats (Sprague-Dawley, male, 150-200 g, Charles River) are placed in a stereotaxis frame. A craniotomy is performed at the level of the parietal cortex (AP: 3.5 mm; LAT: 7 mm and 3.5 mm below the cranial roof). A catheter connected to an HPLC pump is placed in contact with the dura mater and a pressure of 0.073 Kpsi is exerted.
The animals are treated intravenously 4 h after the surgery (D0) by administering a solution of 4-cyclopropylmethoxy-N-(3,5-dichloro-1-oxidopyridin-4-yl)-5-(methoxy)pyridine-2-carboxamide in the carrier (PEG200/physiological saline (NaCl 0.9%)), at the dose of 0.05 mg/kg.
Starting from D1 and up to D21 post-surgery, the animals are treated with a solution containing 4-cyclopropylmethoxy-N-(3,5-dichloro-1-oxidopyridin-4-yl)-5-(methoxy)pyridine-2-carboxamide in the carrier (methylcellulose (MC) (0.6%)+tween-80 (0.5%) in water) per os, twice a day, at the total daily dose of 0.1 mg/kg.
The deficiency in the CFR was measured at days D23 and D24 post-surgery.
At D23, the animal is placed in a box, where it receives an electric shock of 0.6 mA for 1.5 s.
At D24, the animal is again placed in the same box and the duration of immobility is measured for 3 minutes.

Where [2] appears, read: 0.1 mg/kg by oral gavage in PEG200, observed up to 6 hours.

In the case of `COc1cnc(C(=O)Nc2c(Cl)c[n+]([O-])cc2Cl)cc1OCC1CC1` [4-Cyclopropylmethoxy-N-(3,5-dichloro-1-oxidopyridin-4-yl)-5-(methoxy)pyridine-2-carboxamide], the “emetic effects (retching and vomiting)” value with ferret (setting [2]) is given as “induces no retching or vomiting”. Moreover, the “inhibition of the deficiency (immobility time in CFR) induced by a cranial trauma” value in data set [1] is listed as 100%.

With `COc1ccc([C@@H]2CNC(=O)C2)cc1OC1CCCC1` [(R)-(−)-rolipram, (4R)-4-[3-(cyclopentyloxy)-4-methoxyphenyl]pyrrolidine-2-one], the “emetic effects (retching and vomiting)” value with ferret (0.05 mg/kg by oral gavage in PEG200, observed up to 6 hours) is “induces vomiting”; in the data set with ferret (setting [2]), “induces vomiting”.
